Assay results taken from patent publication US20260008768A1, “UREA DERIVATIVES FOR INHIBITING NLRP3 AND USES THEREOF” (VENTUS THERAPEUTICS U.S., INC., priority 2023, published 2026).
pIC50: −log10 of the molar value.

How the values were obtained:
[1] = target: T1, human NLRP3 (Homo sapiens, UniProt Q96P20); experiment: Human Whole Blood (hWB) NLRP3 Assay (LPS/ATP, IL-1β); assay type: cell-based; design: host or cells: human whole blood from healthy volunteers (A3)
Experimental: Human whole blood is drawn from healthy volunteers after obtaining written informed consent. Heparin lithium coated tubes are used to collect blood from volunteers. Blood samples are distributed on 96 well plates using 90 μl per well.
Priming procedure: Priming is performed by adding 5 μl of LPS (O26:B6; Sigma L-2654) at a final concentration of 1 μg/ml for 4.5 hours in a humidified incubator with 37° C., 5% CO2. Thirty minutes prior to NLRP3 activation, 5 μl of a 20× compound solution or vehicle (2% dimethylsulfoxide (DMSO)) is added to each well and plates were incubated on a shaker (450 rpm) in a humidified incubator with 37° C., 5% CO2.
Alternative priming procedure: Thirty minutes prior to LPS priming, 5 μl of a 20× compound solution or vehicle (2% dimethylsulfoxide (DMSO)) is added to each well and plates were incubated on a shaker (450 rpm) in a humidified incubator with 37° C., 5% CO2. Priming is performed by adding 5 μl of LPS (O26:B6; Sigma L-2654) at a final concentration of 1 μg/ml for 5 hours in a humidified incubator with 37° C., 5% CO2.
Activation is then performed by adding 3.3 μl of a 31×ATP solution per well. At the end of the 30 minutes stimulation, the plates are centrifuged (800 g, 10 min, room temperature) and the plasma from each well is frozen at −80° C. IL-1β levels in the supernatant were analyzed using a mesoscale discovery assay (MSD K151TUK) according to the manufacturers' instructions.
There is no detectable difference in assay results using the priming procedure versus the alternative priming procedure.
hWB NLRP3 IC50 assay results, as a measurement of whole blood potency, are provided in Table B. “A” activity=<1 uM; “B” activity=1-2 uM; “C” activity=>2-3 uM; “D” activity=>3 uM.

[2] = target: T1, human NLRP3; experiment: Human PBMC NLRP3 Assay (LPS priming, ATP stimulation, cytokine measurement); assay type: cell-based; design: host or cells: human PBMCs (A2); human whole blood from healthy volunteers (A3); conditions: human PBMC, LPS + ATP
Experimental: Reagents: Human PBMCs (Normal): iXCells Cat #10HU-003; RPMI 1640 medium with GlutaMAX: ThermoFisher Cat #61870127 (Complete Media: 4.5 g/L D-glucose, 10% FBS, 100 mM NaPyr, 1% Pen/Strep, 10 mM HEPES and 0.05 mM of ®-mercaptoethanol; Assay Media: 4.5 g/L D-glucose, 100 mM NaPyr, 1% Pen/Strep, 10 mM HEPES and 0.05 mM of mercaptoethanol; 96-well V-bottom Plates: Costar Cat #3894; LPS (E. coli O26:B6): Sigma Cat #L2654, stock 5 mg/mL in PBS; ATP: Sigma Cat #A6419, prepared in a 250 mM stock in 1 M HEPES (adjusted to pH 7.4).
Cryopreserved PBMCs were rapidly thawed in a 37° C. water bath for 2 min. Cells were then centrifuged at 1200 RPM for 5 min and resuspended in ˜50 mL of fresh RPMI 1640 Complete Medium. A count was undertaken using a hemocytometer and adjusted to 2.5×10^5 cells/mL. V-shaped 96-well plates were seeded with 200 μL of PBMCs (5×10^4) per well and subsequently incubated overnight at 37° C. with 5% CO2. Assay Media was then prepared containing 100 ng/ml of LPS. PBMCs were then centrifuged at 1,200 RPM for 5 min, serum containing media was aspirated, and 150 μL/well of Assay Media+LPS was immediately added. Assay Media without LPS was added in the untreated control wells. Cells were then primed with LPS for 4 h at 37° C. with 5% CO2. A concentration response curve (CRC) was prepared of 1000× test compound in 100% DMSO. The CRC was then diluted 1:50 in Assay Media and then further diluted by 1:5× in Assay Media resulting in a final 4×CRC in 0.4% DMSO/Assay Media. 50 μL/well of 4× test compound CRC or vehicle (0.4% DMSO/Assay Media) was then transferred into each well and subsequently incubated for 30 min at 37° C. with 5% CO2. Cells were stimulated by adding 4 μL of 250 mM ATP, using a 250 mM stock prepared in 1 M Hepes without further dilution (for a final concentration of 5 mM), for 1 h at 37° C. with 5% CO2 Plates were then centrifuged at 1200 RPM for 5 min; and 50 μl of the media was transferred to a clean 96-well storage plate for cytokine measurements using the mesoscale platform, and stored at −80° C. until analyzed. Compounds were added 30 minutes before priming the cells with LPS when TNFα was required to be quantified in the cytokine panel to confirm selectivity.
PBMC NLRP3 IC50 assay results, as a measurement of cellular potency, are provided in Table B. “A” activity=<0.01 uM; “B” activity=0.01-0.1 uM; “C” activity=>0.1-0.5 uM; “D” activity=>0.5 uM.

[3] = target: T1, human NLRP3; experiment: Scintillation Proximity (SPA) NLRP3 Assay, displacement of 3H-MCC950; assay type: binding; conditions: displacement of 3H-MCC950 from human NLRP3
Outline: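 Displacement of radioligand 3H-MCC950 (125 nM final) from 350 nM human NLRP3, read by scintillation proximity after 6 h equilibration with PVT beads. Buffer: 20 mM HEPES pH 7.5, 150 mM NaCl, 5 mM MgCl2, 100 μM ADP; compound preincubated 15 min, ligand 60 min, RT. IC50 from specific binding.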

T1 sequence (Q96P20 whole entry): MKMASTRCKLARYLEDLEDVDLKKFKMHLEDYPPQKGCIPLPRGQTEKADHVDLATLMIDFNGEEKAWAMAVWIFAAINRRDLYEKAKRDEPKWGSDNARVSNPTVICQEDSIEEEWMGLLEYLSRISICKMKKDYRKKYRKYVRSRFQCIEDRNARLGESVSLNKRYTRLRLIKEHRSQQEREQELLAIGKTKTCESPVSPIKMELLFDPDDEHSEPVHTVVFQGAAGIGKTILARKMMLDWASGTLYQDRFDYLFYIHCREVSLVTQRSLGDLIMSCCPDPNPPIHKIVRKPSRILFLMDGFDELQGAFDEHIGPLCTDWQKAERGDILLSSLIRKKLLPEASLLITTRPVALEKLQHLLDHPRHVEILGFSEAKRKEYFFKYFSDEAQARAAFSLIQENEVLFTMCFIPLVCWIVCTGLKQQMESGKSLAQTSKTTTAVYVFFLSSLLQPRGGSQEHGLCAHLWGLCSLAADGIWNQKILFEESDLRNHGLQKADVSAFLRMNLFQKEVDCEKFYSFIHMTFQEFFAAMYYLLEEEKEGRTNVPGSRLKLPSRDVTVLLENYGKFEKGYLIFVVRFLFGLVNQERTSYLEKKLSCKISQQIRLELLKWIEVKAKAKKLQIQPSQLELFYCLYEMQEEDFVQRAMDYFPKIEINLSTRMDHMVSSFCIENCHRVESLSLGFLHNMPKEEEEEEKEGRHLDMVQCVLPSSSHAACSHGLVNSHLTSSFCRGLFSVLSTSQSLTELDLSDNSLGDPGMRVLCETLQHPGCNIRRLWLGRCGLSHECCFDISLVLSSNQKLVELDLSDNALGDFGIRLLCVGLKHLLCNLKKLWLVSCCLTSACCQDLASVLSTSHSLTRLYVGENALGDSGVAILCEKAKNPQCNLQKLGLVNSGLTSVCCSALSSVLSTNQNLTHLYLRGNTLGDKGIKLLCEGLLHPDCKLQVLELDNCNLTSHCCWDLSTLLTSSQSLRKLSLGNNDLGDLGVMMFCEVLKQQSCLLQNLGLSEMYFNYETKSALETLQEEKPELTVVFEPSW

Compound | pIC50 ([1]; Table B, activity class) | pIC50 ([2]; Table B, activity class) | pIC50 ([3]; Table B, activity class) | pIC50 ([1]; Table C) | pIC50 ([2]; Table C) | pIC50 ([3]; Table C)
C[C@@H]1CCN(c2nnn[nH]2)C[C@H](NC(=O)N(C)c2ccc(OC(F)F)c(OC(F)F)c2)C1 (single isomer, unassigned) [16A*] | 5.70 to 6.00 | > 8.00 | > 6.00 | – | – | –
C[C@@H]1CCN(c2nnn[nH]2)C[C@H](NC(=O)N(C)c2c(F)cc(OC(F)F)cc2F)C1 (single isomer, unassigned) [19A*] | > 6.00 | > 8.00 | > 6.00 | – | – | –
C[C@@H]1CCN(c2nnn[nH]2)C[C@H](NC(=O)N(C)c2ccc(OC(F)F)c(F)c2F)C1 (single isomer, unassigned) [40A*] | 5.70 to 6.00 | 7.00 to 8.00 | > 6.00 | – | – | –
C[C@@H]1C[C@@H](NC(=O)N(C)c2ccc(OC(F)F)cc2)[C@H]2CC[C@@H]1N2c1nnn[nH]1 (single isomer, unassigned) [42A*] | > 6.00 | > 8.00 | > 6.00 | 6.54 | 8.39 | 7.19
C[C@@H]1C[C@@H](NC(=O)N(C)c2ccc(C3CC3)cc2)[C@H]2CC[C@@H]1N2c1nnn[nH]1 (single isomer, unassigned) [46A*] | > 6.00 | > 8.00 | > 6.00 | – | – | –
C[C@@H]1C[C@@H](NC(=O)N(C)c2ccc(C(F)(F)F)c(F)c2)[C@H]2CC[C@@H]1N2c1nnn[nH]1 (single isomer, unassigned) [49A*] | 5.70 to 6.00 | 7.00 to 8.00 | > 6.00 | – | – | –
C[C@@H]1C[C@@H](NC(=O)N(C)c2ccc(OC(F)F)c(F)c2)[C@H]2CC[C@@H]1N2c1nnn[nH]1 (single isomer, unassigned) [52A*] | > 6.00 | 7.00 to 8.00 | > 6.00 | – | – | –
C[C@@H]1C[C@@H](NC(=O)N(C)c2ccc(C3CC3)c(F)c2)[C@H]2CC[C@@H]1N2c1nnn[nH]1 (single isomer, unassigned) [54A*] | > 6.00 | > 8.00 | > 6.00 | – | – | –
C[C@@H]1C[C@@H](NC(=O)N(C)c2ccc(OC(F)F)cc2F)[C@H]2CC[C@@H]1N2c1nnn[nH]1 (single isomer, unassigned) [57A*] | > 6.00 | > 8.00 | > 6.00 | 6.72 | 8.51 | 6.70
C[C@@H]1C[C@@H](NC(=O)N(C)c2ccc(OC(F)(F)F)c(F)c2F)[C@H]2CC[C@@H]1N2c1nnn[nH]1 (single isomer, unassigned) [59A*] | 5.52 to 5.70 | 6.30 to 7.00 | > 6.00 | – | – | –
C[C@@H]1C[C@@H](NC(=O)N(C)c2c(F)cc(C3CC3)cc2F)[C@H]2CC[C@@H]1N2c1nnn[nH]1 (single isomer, unassigned) [60A*] | > 6.00 | > 8.00 | > 6.00 | – | – | –
C[C@@H]1C[C@@H](NC(=O)N(C)c2c(F)cc(OC(F)F)cc2F)[C@H]2CC[C@@H]1N2c1nnn[nH]1 (single isomer, unassigned) [61A*] | > 6.00 | > 8.00 | > 6.00 | – | – | –
C[C@@H]1C[C@@H](NC(=O)N(C)c2c(F)cc(OC(F)(F)F)cc2F)[C@H]2CC[C@@H]1N2c1nnn[nH]1 (single isomer, unassigned) [62A*] | > 6.00 | 7.00 to 8.00 | > 6.00 | – | – | –
C[C@@H]1C[C@@H](NC(=O)N(C)c2ccc(OC(F)F)c(OC(F)F)c2)[C@H]2CC[C@@H]1N2c1nnn[nH]1 (single isomer, unassigned) [64A*] | > 6.00 | 7.00 to 8.00 | > 6.00 | – | – | –

More lines, main results first:

pIC50 ([1]; Table B, activity class) | pIC50 ([2]; Table B, activity class) | pIC50 ([3]; Table B, activity class) | Compound | pIC50 ([1]; Table C) | pIC50 ([2]; Table C) | pIC50 ([3]; Table C)
> 6.00 | > 8.00 | > 6.00 | C[C@@H]1CCN(c2nnn[nH]2)C[C@H](NC(=O)N(C)c2ccc(OC(F)F)c(F)c2)C1 (single isomer, unassigned) [15A*] | – | – | –
5.70 to 6.00 | > 8.00 | > 6.00 | C[C@@H]1CCN(c2nnn[nH]2)C[C@H](NC(=O)N(C)c2ccc(OC(F)F)cc2F)C1 (single isomer, unassigned) [17A*] | – | – | –
> 6.00 | > 8.00 | > 6.00 | C[C@@H]1CCN(c2nnn[nH]2)C[C@H](NC(=O)N(C)c2ccc(C(F)F)cc2F)C1 (single isomer, unassigned) [18A*] | – | – | –
> 6.00 | > 8.00 | > 6.00 | C[C@@H]1CCN(c2nnn[nH]2)C[C@H](NC(=O)N(C)c2c(F)cc(C3CC3)cc2F)C1 (single isomer, unassigned) [20A*] | – | – | –
> 6.00 | 7.00 to 8.00 | > 6.00 | C[C@@H]1CCN(c2nnn[nH]2)C[C@H](NC(=O)N(C)c2ccc(C(F)(F)F)c(F)c2F)C1 (single isomer, unassigned) [21A*] | – | – | –
> 6.00 | > 8.00 | > 6.00 | C[C@@H]1CCN(c2nnn[nH]2)C[C@H](NC(=O)N(C)c2ccc(C3CC3)c(F)c2)C1 (single isomer, unassigned) [23A*] | – | – | –
> 6.00 | > 8.00 | > 6.00 | C[C@@H]1CCN(c2nnn[nH]2)C[C@H](NC(=O)N(C)c2ccc(OC(F)(F)F)cc2F)C1 (single isomer, unassigned) [24A*] | 6.59 | 8.10 | 6.96
< 5.52 | 7.00 to 8.00 | > 6.00 | C[C@@H]1CCN(c2nnn[nH]2)C[C@H](NC(=O)N(C)c2ccc(OC(F)(F)F)c(F)c2F)C1 (single isomer, unassigned) [26A*] | – | – | –
> 6.00 | > 8.00 | > 6.00 | C[C@@H]1CCN(c2nnn[nH]2)C[C@H](NC(=O)N(C)c2c(F)cc(OC(F)(F)F)cc2F)C1 (single isomer, unassigned) [41A*] | – | – | –
> 6.00 | > 8.00 | > 6.00 | CCN(C(=O)N[C@@H]1C[C@H](C)CCN(c2nnn[nH]2)C1)c1ccc(OC(F)(F)F)cc1 (single isomer, unassigned) [43A*] | – | – | –
